Reference: patent publication US5238930A, “Alkenoic acid compounds for mechanism-based inactivation of dehydropeptidase activity” (Board of Governors of Wayne State University, priority 1992, dated 1993)
Entries after “also recorded” stand apart in the source; their conditions may differ. Blank lines part the entries; values can stand above or below the molecule they belong to.

Key:
Assay in all cases: Kinetic analysis of interaction (turnover and inactivation) with porcine renal dipeptidase (dehydropeptidase I)
Assay type in all cases: biochemical
[1] = molecular target: T1, porcine dehydropeptidase I (Sus scrofa, UniProt P22412); details: for kinact: read-out: kinact (first-order rate constant for inactivation) (converted); for Ki: renal dipeptidase assay with glycinyldehydrophenylalanine as substrate, read-out: Ki (reversible inhibitor constant for the formation of the EI complex)
T1 construct: Renal dipeptidase from porcine kidney was purified by a slight modification of the literature report; from tissue; host or cells: porcine kidney
T1 sequence (P22412 17-409): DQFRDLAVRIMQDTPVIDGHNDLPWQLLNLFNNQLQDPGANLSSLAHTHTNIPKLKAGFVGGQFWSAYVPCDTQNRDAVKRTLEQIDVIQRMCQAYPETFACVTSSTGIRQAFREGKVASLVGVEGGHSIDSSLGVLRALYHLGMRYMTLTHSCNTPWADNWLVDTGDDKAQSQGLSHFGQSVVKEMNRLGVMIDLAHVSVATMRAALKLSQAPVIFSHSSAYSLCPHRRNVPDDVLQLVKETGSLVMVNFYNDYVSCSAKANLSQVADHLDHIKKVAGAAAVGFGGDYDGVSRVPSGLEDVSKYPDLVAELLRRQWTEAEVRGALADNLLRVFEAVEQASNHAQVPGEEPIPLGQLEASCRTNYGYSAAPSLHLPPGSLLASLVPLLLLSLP
Description: (§1) Km is the Michaelis […] for the turnover, and Ki is the reversible inhibitor constant for the formation of the EI complex. The parameters Kcat and Kinact are first-order rate constant for enzymic turnover and inactivation, respectively. The partition ratio is defined as kcat divided by kinact (i.e., kcat/ kinact).
(§2) Renal dipeptidase from porcine kidney was purified by a slight modification of the literature report (Biochem. J. 257, 361 (1989)). The spectrophotometric assay of renal dipeptidase is carried out according to the method of Campbell et al. (Methods Enzymol. 19, 722 (1970)), using glycinyldehydrophenylalanine as substrate. The substrate was synthesized according to the literature report (Synthesis Commun., 234 (1982)).
(§3) The relevant kinetic parameters for interactions of I and III with porcine dehydropeptidase I are given below.

[2] = substrate: C=C(NC(=O)CC#N)C(=O)O; details: other: turnover of compound by porcine dehydropeptidase I
Description: as §1, §2, §3

[3] = substrate: C=C(CC(=O)CC#N)C(=O)O; details: other: turnover of compound by porcine dehydropeptidase I
Description: as §1, §2, §3

- kcat/kinact (partition ratio) ([1]; porcine dehydropeptidase I, kcat divided by kinact): 217 ± 37
- kinact ([1]; porcine dehydropeptidase I): 0.00252 s⁻¹
- Ki ([1]; porcine dehydropeptidase I): 38 ± 1 µM
Molecule: C=C(CC(=O)CC#N)C(=O)O [I, 2-Methnylene-5-Cyano-4-Oxopentanoic Acid]
- inactivation of dehydropeptidase, overall result in words ([1]; conclusion from the kinetic table): very effective inactivators; also recorded: somewhat better than the ketonic compound (I)

- kinact ([1]; porcine dehydropeptidase I): 0.00462 s⁻¹
- Ki ([1]; porcine dehydropeptidase I): 18 ± 6 µM
Molecule: C=C(NC(=O)CC#N)C(=O)O [III, 2-Cyanoacetamidoacrylic Acid]

B1: porcine dehydropeptidase I (Sus scrofa) (protein)
chain: T1 sequence (P22412 17-409)
notes: Renal dipeptidase from porcine kidney was purified by a slight modification of the literature report; from tissue; host or cells: porcine kidney
- Km [2]: 416 µM
- Km [3]: 10.3 mM
